Assay [1] has as its system Felis catus. In words: Effect on rise in arterial pressure in anesthetized cats at intravenous dose of 1000 ug/kg. The format is functional, Artery.
Assay [2] concerns Felis catus. In words: Effect on rise in arterial pressure in anesthetized cats at intravenous dose of 100 ug/kg. In kind it is functional, Artery.
Assay [3] deals with Felis catus. In words: Effect on increase in heart rate in anesthetized cats at intravenous dose of 100 ug/kg. In kind it is functional.
For assay [4], the system named is Felis catus. Kind of assay: Effect on increase in heart rate in anesthetized cats at intravenous dose of 300 ug/kg. The format is functional.
Assay [5] concerns Felis catus. In words: Effect on rise in arterial pressure in anesthetized cats at intravenous dose of 300 ug/kg. The format is functional, Artery.
The subject of assay [6] is Felis catus. Kind of assay: Effect on rise in arterial pressure in anesthetized cats at intravenous dose of 30 ug/kg. In kind it is functional, Artery.
Assay [7] relates to Felis catus. In words: Effect on increase in heart rate in anesthetized cats at intravenous dose of 30 ug/kg. In kind it is functional.

For the compound `CCCN(CCC)C1Cc2cc(O)cc(O)c2C1` (centres undefined), the Arterial pressure in assay [1] is recorded as 22.8 mmHg; in assay [2], 10 mmHg. Further, the Heart rate is on record as 0 beats min-1 in assay [3] and 21.7 beats min-1 in assay [4].

Consider `NC1Cc2cc(O)cc(O)c2C1` (centres undefined), for which the Arterial pressure in assay [1] amounted to 70.3 mmHg; in assay [2] it was 13.3 mmHg. For the same compound, the Heart rate in assay [3] came out at 0 beats min-1; in assay [4] it was 7.3 beats min-1.

With `NC1CCCc2c(O)cc(O)cc2C1` (centres undefined), the results for the Arterial pressure in assay [2], in assay [5] and in assay [6] were 40 mmHg, 78.7 mmHg and 25.3 mmHg, respectively. The Heart rate in assay [3] was 11.7 beats min-1; in assay [4], 42 beats min-1; in assay [7], 4.3 beats min-1.

The values above are taken from ChEMBL document CHEMBL1122566, “Resorcinol congeners of dopamine derived from benzocycloheptene and indan” (1984).
